ChEMBL document CHEMBL5360563, “Discovery of a potent and selective allosteric inhibitor targeting the SHP2 tunnel site for RTK-driven cancer treatment” (Eur J Med Chem, 2023)

Legend:
[1] = molecular target: T1, Tyrosine-protein phosphatase non-receptor type 11 (Homo sapiens, UniProt Q06124); experiment: Inhibition of pIRS-1 peptide activated human wild type SHP2 FL (Met1 to Leu525 residues) using DiFMUP as substrate preincubated for 30 mins followed by substrate addition and measured after 30 mins by microplate reader method
T1 sequence (Q06124 whole entry): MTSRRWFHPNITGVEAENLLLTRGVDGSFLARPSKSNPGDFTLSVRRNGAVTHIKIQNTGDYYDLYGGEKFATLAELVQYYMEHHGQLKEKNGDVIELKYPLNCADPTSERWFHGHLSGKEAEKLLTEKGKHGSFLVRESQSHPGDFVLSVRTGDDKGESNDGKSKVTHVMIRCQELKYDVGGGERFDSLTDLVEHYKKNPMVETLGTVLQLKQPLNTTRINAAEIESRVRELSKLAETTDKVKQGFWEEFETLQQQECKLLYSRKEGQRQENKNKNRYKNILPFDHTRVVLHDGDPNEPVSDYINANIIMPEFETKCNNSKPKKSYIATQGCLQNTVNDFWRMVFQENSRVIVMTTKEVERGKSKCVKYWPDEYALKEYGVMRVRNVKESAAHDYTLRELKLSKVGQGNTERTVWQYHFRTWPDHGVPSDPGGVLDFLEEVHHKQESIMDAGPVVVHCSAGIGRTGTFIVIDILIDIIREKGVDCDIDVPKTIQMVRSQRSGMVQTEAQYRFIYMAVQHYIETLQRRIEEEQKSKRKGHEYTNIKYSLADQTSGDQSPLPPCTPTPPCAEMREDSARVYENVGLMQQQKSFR

[2] = Volume of distribution at steady state in Sprague-Dawley rat at 5 mg/kg, iv and measured upto 24 hrs by LC-MS/MS analysis; format: ADME, organism-based; conditions: in vivo, read-out: Vdss
[3] = AUC (0 to infinity) in Sprague-Dawley rat at 5 mg/kg, iv and measured upto 24 hrs by LC-MS/MS analysis; format: ADME, organism-based; set-up: dose 5 mg/kg, time < 24 hrs, route iv; conditions: in vivo
[4] = molecular target: Phosphatidylinositol 4-phosphate 3-kinase C2 domain-containing subunit beta (Homo sapiens) (UniProt O00750); conditions: dose 1000.0 nM
Phosphatidylinositol 4-phosphate 3-kinase C2 domain-containing subunit beta (Homo sapiens), sequence (O00750 whole entry, the tested form may be a part): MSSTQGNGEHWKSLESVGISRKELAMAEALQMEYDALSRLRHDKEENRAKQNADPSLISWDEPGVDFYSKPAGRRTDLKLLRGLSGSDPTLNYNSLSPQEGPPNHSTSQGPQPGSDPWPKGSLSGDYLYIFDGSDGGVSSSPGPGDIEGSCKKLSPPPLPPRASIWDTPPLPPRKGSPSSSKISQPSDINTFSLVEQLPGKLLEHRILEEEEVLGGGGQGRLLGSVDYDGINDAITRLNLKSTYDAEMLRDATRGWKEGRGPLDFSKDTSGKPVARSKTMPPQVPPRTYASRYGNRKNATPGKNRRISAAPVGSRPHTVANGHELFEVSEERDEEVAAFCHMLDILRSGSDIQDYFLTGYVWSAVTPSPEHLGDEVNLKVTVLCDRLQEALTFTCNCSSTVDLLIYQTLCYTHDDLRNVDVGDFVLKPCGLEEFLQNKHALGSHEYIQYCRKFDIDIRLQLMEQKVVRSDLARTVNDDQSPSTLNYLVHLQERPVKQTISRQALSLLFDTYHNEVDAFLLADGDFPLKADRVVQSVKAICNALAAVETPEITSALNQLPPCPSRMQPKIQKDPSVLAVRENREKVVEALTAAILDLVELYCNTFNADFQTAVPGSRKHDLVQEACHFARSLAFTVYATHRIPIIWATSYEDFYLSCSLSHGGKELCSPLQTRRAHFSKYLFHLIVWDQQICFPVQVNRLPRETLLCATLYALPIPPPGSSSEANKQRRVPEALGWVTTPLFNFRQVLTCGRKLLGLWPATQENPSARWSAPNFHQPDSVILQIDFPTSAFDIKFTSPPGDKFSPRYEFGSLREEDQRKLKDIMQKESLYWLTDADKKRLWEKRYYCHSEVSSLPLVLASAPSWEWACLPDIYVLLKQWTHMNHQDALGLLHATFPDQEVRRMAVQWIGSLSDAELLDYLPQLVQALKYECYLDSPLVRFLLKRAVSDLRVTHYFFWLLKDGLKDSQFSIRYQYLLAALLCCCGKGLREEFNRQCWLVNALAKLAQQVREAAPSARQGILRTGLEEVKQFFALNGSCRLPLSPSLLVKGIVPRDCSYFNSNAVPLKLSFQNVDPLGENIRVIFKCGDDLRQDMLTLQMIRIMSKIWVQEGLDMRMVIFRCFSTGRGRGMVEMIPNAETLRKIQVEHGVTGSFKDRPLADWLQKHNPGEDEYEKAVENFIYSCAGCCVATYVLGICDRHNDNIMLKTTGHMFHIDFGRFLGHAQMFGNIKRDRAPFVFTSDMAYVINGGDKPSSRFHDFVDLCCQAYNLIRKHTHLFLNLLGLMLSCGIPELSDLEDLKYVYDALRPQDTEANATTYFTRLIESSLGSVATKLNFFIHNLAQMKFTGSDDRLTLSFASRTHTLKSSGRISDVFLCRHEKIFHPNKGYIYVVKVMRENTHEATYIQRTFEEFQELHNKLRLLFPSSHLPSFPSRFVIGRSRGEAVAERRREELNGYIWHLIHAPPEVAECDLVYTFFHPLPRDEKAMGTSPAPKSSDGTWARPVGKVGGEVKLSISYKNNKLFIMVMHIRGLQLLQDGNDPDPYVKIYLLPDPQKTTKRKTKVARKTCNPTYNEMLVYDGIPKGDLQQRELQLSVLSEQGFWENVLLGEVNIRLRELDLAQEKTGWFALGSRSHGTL
Description: Inhibition of PIK3C2B (unknown origin) at 1000 nM by KINOMEscan assay relative to control

[5] = molecular target: T1, Tyrosine-protein phosphatase non-receptor type 11; experiment: Inhibition of human SHP2 in human NCI-H1975 cells assessed as reduction in ERK phosphorylation by Western blot analysis; format: cell-based
[6] = Cmax in Sprague-Dawley rat at 5 mg/kg, iv and measured upto 24 hrs by LC-MS/MS analysis; format: ADME, organism-based; set-up: dose 5 mg/kg, time < 24 hrs, route iv; conditions: in vivo
[7] = Oral bioavailability in Sprague-Dawley rat at 5 mg/kg and measured upto 24 hrs by LC-MS/MS analysis; format: ADME, organism-based; conditions: in vivo
[8] = molecular target: T1, Tyrosine-protein phosphatase non-receptor type 11; experiment: Inhibition of human SHP2 in human NCI-H1975/OSIR cells assessed as reduction in ERK phosphorylation by Western blot analysis; format: cell-based
[9] = molecular target: Insulin receptor (Homo sapiens) (UniProt P06213); conditions: dose 1000.0 nM
Insulin receptor (Homo sapiens), sequence (P06213 28-758 limits assumed): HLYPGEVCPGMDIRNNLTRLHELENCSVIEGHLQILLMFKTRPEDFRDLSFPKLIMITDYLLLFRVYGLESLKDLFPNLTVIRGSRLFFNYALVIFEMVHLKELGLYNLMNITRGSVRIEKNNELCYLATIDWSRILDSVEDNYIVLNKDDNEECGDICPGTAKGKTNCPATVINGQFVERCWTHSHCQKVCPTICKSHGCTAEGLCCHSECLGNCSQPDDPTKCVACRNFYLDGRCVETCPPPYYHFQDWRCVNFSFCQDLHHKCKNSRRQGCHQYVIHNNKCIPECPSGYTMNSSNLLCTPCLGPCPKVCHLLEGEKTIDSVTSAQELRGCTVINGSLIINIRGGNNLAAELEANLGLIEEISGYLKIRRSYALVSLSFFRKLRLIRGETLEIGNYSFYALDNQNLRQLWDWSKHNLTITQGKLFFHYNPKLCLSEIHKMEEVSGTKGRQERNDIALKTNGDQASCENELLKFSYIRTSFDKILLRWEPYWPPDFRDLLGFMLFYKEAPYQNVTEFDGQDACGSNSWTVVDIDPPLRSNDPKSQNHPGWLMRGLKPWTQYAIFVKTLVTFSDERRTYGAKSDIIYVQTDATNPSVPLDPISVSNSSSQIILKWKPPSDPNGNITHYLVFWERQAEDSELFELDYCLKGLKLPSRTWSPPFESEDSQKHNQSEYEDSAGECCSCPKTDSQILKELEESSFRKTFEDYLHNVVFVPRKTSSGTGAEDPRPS
Insulin receptor (Homo sapiens), sequence (P06213 763-1382 limits assumed): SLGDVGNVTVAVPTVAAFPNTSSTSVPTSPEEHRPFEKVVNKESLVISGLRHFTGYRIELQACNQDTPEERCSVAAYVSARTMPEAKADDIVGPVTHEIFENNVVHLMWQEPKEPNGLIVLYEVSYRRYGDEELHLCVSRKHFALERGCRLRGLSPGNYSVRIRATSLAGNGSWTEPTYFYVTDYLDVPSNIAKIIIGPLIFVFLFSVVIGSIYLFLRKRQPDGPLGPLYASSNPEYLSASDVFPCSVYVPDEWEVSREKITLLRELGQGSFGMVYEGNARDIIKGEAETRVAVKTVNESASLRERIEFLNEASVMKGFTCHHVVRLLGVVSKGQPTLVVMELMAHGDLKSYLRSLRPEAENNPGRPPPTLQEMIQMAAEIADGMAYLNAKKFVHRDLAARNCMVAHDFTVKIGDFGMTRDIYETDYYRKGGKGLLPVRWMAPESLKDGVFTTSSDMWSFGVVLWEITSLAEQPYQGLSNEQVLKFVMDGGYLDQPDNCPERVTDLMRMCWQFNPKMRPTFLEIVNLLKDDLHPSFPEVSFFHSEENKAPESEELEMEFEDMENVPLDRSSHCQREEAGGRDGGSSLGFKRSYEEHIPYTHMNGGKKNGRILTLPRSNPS
Description: Inhibition of INSR (unknown origin) at 1000 nM by KINOMEscan assay relative to control

[10] = Half life in Sprague-Dawley rat at 5 mg/kg, iv and measured upto 24 hrs by LC-MS/MS analysis; format: ADME, organism-based; conditions: in vivo
[11] = Half life in Sprague-Dawley rat at 5 mg/kg, po and measured upto 24 hrs by LC-MS/MS analysis; format: ADME, organism-based; conditions: in vivo
[12] = AUC (0 to infinity) in Sprague-Dawley rat at 5 mg/kg, po and measured upto 24 hrs by LC-MS/MS analysis; format: ADME, organism-based; set-up: dose 5 mg/kg, time < 24 hrs, route po; conditions: in vivo
[13] = Tmax in Sprague-Dawley rat at 5 mg/kg, po and measured upto 24 hrs by LC-MS/MS analysis; format: ADME, organism-based; conditions: in vivo
[14] = molecular target: Dual specificity tyrosine-phosphorylation-regulated kinase 1B (Homo sapiens) (UniProt Q9Y463); conditions: dose 1000.0 nM
Dual specificity tyrosine-phosphorylation-regulated kinase 1B (Homo sapiens), sequence (Q9Y463 whole entry, looked up): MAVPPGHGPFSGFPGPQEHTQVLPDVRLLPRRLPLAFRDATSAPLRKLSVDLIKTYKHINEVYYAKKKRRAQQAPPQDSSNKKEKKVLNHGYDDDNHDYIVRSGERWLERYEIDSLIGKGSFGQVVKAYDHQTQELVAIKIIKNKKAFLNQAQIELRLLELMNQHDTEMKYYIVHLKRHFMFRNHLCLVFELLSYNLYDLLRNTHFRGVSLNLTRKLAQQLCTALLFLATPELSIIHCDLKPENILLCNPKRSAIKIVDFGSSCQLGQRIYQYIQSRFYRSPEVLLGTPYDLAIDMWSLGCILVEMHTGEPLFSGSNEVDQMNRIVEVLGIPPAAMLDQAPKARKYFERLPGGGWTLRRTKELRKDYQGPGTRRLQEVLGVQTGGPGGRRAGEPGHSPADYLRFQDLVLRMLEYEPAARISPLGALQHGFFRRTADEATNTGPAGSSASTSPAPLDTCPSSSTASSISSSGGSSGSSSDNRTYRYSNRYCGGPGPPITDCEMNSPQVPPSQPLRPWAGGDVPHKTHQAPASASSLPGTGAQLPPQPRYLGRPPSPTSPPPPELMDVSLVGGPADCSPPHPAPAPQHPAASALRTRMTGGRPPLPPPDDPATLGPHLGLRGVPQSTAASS
Description: Inhibition of DYRK1B (unknown origin) at 1000 nM by KINOMEscan assay relative to control

[15] = Clearance in Sprague-Dawley rat at 5 mg/kg, iv and measured upto 24 hrs by LC-MS/MS analysis; format: ADME, organism-based; conditions: in vivo
[16] = molecular target: T2, TGF-beta receptor type-1 (Homo sapiens) (UniProt P36897); conditions: dose 1000.0 nM
T2 sequence (whole entry): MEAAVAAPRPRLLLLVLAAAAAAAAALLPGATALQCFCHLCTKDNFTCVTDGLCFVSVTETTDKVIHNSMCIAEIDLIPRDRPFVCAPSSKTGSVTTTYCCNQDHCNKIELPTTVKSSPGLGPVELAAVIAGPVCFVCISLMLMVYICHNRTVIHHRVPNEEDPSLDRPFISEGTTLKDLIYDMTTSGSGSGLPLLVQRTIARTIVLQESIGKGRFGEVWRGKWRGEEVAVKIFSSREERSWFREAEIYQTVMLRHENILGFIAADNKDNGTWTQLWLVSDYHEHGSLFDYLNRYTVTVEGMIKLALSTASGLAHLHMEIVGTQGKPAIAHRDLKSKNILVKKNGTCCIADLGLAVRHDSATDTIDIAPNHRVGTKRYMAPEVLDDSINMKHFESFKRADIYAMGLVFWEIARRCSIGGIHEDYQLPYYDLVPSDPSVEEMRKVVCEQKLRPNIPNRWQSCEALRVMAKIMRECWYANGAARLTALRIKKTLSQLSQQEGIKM
Description: Inhibition of TGFBR1 (unknown origin) at 1000 nM by KINOMEscan assay relative to control

[17] = molecular target: T3, Serine/threonine-protein kinase STK11 (Homo sapiens) (UniProt Q15831); conditions: dose 1000.0 nM
T3 sequence (whole entry): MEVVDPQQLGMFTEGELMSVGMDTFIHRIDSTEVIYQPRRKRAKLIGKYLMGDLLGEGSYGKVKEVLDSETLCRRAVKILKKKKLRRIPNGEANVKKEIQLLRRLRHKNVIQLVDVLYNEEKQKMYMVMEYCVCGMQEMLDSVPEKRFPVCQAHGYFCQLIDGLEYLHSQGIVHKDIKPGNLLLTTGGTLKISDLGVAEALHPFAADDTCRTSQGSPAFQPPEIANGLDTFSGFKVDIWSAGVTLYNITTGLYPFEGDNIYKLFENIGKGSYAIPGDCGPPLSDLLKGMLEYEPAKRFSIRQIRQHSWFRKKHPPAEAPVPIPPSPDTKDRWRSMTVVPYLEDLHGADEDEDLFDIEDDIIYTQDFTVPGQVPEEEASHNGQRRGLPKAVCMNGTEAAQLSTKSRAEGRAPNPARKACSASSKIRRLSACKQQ
Description: Inhibition of LKB1 (unknown origin) at 1000 nM by KINOMEscan assay relative to control

[18] = Cmax in Sprague-Dawley rat at 5 mg/kg, po and measured upto 24 hrs by LC-MS/MS analysis; format: ADME, organism-based; set-up: dose 5 mg/kg, time < 24 hrs, route po; conditions: in vivo
[19] = Tmax in Sprague-Dawley rat at 5 mg/kg, iv and measured upto 24 hrs by LC-MS/MS analysis; format: ADME, organism-based; conditions: in vivo
[20] = molecular target: Serine/threonine-protein kinase 32C (Homo sapiens) (UniProt Q86UX6); conditions: dose 1000.0 nM
Serine/threonine-protein kinase 32C (Homo sapiens), sequence (Q86UX6 whole entry): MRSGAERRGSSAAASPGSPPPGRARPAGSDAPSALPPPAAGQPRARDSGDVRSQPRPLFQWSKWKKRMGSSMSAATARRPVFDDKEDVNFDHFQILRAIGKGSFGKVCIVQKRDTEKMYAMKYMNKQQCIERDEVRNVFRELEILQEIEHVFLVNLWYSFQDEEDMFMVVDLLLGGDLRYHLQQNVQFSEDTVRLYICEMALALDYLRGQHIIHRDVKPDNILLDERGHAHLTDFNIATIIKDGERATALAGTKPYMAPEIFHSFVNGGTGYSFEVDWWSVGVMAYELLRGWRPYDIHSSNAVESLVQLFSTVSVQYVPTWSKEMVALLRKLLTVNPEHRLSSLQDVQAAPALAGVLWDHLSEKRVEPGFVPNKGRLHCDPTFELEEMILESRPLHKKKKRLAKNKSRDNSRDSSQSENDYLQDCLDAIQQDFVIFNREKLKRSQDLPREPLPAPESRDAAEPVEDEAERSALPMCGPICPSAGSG
Description: Inhibition of YANK3 (unknown origin) at 1000 nM by KINOMEscan assay relative to control

Structure (SMILES)	IC50 [1] [µM]	other results
CN(Cc1ccccc1)c1ncc(C(=O)Nc2ccccc2)c(N)n1	> 100	–
Nc1nc(N2CCN(c3ccccc3)CC2)ncc1C(=O)Nc1ccccc1	> 100	–
CCOC(=O)C1CCN(c2ncc(C(=O)Nc3ccccc3)c(N)n2)CC1	2.1	–
CC1(N)CCN(c2ncc(C(=O)Nc3ccc(F)cc3)c(N)n2)CC1	0.62	–
CC1(N)CCN(c2ncc(C(=O)Nc3ccc(Cl)c(Cl)c3)c(N)n2)CC1	0.25	–
CC1(N)CCN(c2ncc(C(=O)NCc3ccccn3)c(N)n2)CC1	8.1	–
Nc1nc(N2CCCC2)ncc1C(=O)Nc1ccccc1	50	–
Nc1nc(N2CCOCC2)ncc1C(=O)Nc1ccccc1	9.5	–
COc1ccccc1CN1CCCC(c2[nH]ccc2C(N)=O)C1 (stereo unspecified)	19	–
Nc1nc(N2CCN(C3CCCCC3)CC2)ncc1C(=O)Nc1ccccc1	100	–
Nc1nc(N2CCSCC2)ncc1C(=O)Nc1ccccc1	5.6	–
CC1(N)CCN(c2ncc(C(=O)Nc3ccc4c(c3)Cc3ccccc3-4)c(N)n2)CC1	100	–
CC1(N)CCN(c2ncc(C(=O)Nc3ccccn3)c(N)n2)CC1	0.8	–
CC(C)(C)OC(=O)N1CCN(c2ncc(C(=O)Nc3ccccc3)c(N)n2)CC1	35	–
COc1ccc2nc(C)cc(Nc3ccccc3OC)c2c1	13.5	–
CCOC(=O)N1CCN(c2ncc(C(=O)Nc3ccccc3)c(N)n2)CC1	8.5	–
CC(C)NC(=O)CN1CCN(c2ncc(C(=O)Nc3ccccc3)c(N)n2)CC1	5.6	–
COc1ccc(NC(=O)c2cnc(N3CCC(C)(N)CC3)nc2N)cc1	1.9	–
CC1(N)CCN(c2ncc(C(=O)Nc3cccc4ccccc34)c(N)n2)CC1	100	–
COc1cccc(OC)c1NC(=O)c1cnc(N2CCC(C)(N)CC2)nc1N	12.5	–
Nc1nc(N2CCN(c3ccccn3)CC2)ncc1C(=O)Nc1ccccc1	> 100	–
CC1(N)CCN(c2ncc(C(=O)Nc3ccc([N+](=O)[O-])cc3)c(N)n2)CC1	2	–

Further lines, with some results ahead:

IC50 [1] [µM]	Structure (SMILES)	other results
6.7	CC(=O)N1CCN(c2ncc(C(=O)Nc3ccccc3)c(N)n2)CC1	–
12.8	Nc1nc(N2CCC3(CC2)OCCO3)ncc1C(=O)Nc1ccccc1	–
1.4	CC1(N)CCN(c2ncc(C(=O)Nc3ccccc3)c(N)n2)CC1	–
> 100	COc1ccc(N2CCN(c3ncc(C(=O)Nc4ccccc4)c(N)n3)CC2)cc1	–
100	Nc1nc(N2CCN(C(=O)c3ccco3)CC2)ncc1C(=O)Nc1ccccc1	–
9.3	CC(C)N1CCN(c2ncc(C(=O)Nc3ccccc3)c(N)n2)CC1	–
3.4	CC1(N)CCN(c2ncc(C(=O)Nc3cc(Cl)cc(Cl)c3)c(N)n2)CC1	–
> 100	CC1(N)CCN(c2ncc(C(=O)Nc3cccc(-c4ccccc4)c3)c(N)n2)CC1	–
2.3	COc1ccc(NC(=O)c2cnc(N3CCC(C)(N)CC3)nc2N)cc1OC	–
8	CC1(N)CCN(c2ncc(C(=O)Nc3ccc4ccccc4c3)c(N)n2)CC1	–
100	Nc1nc(N2CCc3ccccc3C2)ncc1C(=O)Nc1ccccc1	–
11.5	CCCN1CCN(c2ncc(C(=O)Nc3ccccc3)c(N)n2)CC1	–
25	CCCCN(C)c1ncc(C(=O)Nc2ccccc2)c(N)n1	–
0.089	CC1(N)CCN(c2ncc(C(=O)Nc3cccnc3)c(N)n2)CC1	Vd [2]: 14 L/kg; AUC(0-inf) [3]: 1880 ng·h/mL; inhibition [4]: > 35%; IC50 [5]: 0.59 µM; Cmax [6]: 854 ng/mL; bioavailability [7]: 55.1%; IC50 [8]: 0.63 µM; inhibition [9]: 69%; half-life [10]: 5.31 h; half-life [11]: 4.77 h; AUC(0-inf) [12]: 1040 ng·h/mL; Tmax [13]: 2.17 h; inhibition [14]: 50%; clearance [15]: 44.8 mL/min/kg; inhibition [16]: 64%; inhibition [17]: > 35%; Cmax [18]: 101 ng/mL; Tmax [19]: 4.98 min; inhibition [20]: 54%
10.2	CCN1CCN(c2ncc(C(=O)Nc3ccccc3)c(N)n2)CC1	–
